In one test the target is T1, human TLR7 (Homo sapiens, UniProt Q9NYK1).
T1 construct: host or cells: HEK293 (HEK-Blue hTLR7)
T1 sequence (Q9NYK1 27-1049): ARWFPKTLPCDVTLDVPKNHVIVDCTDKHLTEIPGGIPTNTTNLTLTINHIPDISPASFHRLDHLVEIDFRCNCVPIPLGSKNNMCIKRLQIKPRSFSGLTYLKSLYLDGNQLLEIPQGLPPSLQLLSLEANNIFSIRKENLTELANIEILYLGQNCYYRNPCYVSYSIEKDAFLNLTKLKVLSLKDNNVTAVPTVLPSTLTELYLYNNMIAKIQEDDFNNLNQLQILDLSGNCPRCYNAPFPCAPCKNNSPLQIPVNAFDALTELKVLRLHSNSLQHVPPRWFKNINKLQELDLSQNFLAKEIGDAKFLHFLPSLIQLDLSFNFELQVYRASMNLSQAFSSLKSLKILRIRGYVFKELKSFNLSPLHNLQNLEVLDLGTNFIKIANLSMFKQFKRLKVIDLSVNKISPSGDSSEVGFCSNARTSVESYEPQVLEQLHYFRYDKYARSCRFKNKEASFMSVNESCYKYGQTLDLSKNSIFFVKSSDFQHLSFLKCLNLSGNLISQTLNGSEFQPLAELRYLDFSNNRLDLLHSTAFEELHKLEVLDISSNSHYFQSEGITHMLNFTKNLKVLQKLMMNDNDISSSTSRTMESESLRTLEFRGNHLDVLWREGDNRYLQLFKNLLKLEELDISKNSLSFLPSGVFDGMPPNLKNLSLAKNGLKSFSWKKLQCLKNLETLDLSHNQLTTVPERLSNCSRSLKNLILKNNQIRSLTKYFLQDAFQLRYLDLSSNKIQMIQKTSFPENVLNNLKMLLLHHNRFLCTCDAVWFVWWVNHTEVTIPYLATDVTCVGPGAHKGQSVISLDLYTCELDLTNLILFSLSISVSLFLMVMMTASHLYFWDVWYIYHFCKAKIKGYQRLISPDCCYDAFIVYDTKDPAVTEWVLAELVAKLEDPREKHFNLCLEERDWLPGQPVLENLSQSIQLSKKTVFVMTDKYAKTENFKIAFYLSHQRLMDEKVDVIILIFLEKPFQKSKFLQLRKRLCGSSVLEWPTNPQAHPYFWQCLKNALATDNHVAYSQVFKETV
Description: HEK-Blue hTLR7 reporter cell assay (SEAP, NF-kB/AP-1) for stimulation of human TLR7. To be noted: HEK-Blue hTLR7 cells, 24 h incubation, SEAP readout; read-out: TLR7_EC50. It is filed as cell-based. The method, then: (§1) The below tests, involving measuring the in vitro activity of some compounds of the disclosure on TLR7 and TLR8, were carried out using the HEK-Blue™ cells as reporter.
The activity described below, with respect to TLR7, TLR8, IFN-α2a, IL-6, IL29 and TNF-α, is given by the half maximal effective concentration (EC50), which corresponds to the concentration required to obtain a 50% of the activation. The lower the EC50, the less the concentration of the compound is required to produce 50% of maximum activation and the higher the potency.
(§2) In Vitro Assay for Studying the Stimulation of Human TLR7 and TLR8:
(§3) HEK-Blue™ hTLR7 Cells (#hkb-htlr7) and HEK-Blue™ hTLR8 Cells (#hkb-htlr8) from InvivoGen were used according to the manufacturer's instructions. These Reporter HEK293 cells were obtained by co-transfection of the hTLR7 or TLR8 gene and an optimized Secreted Embryonic Alkaline Phosphatase (SEAP) reporter gene which is placed under the control of the IFN-β minimal promoter fused to five NF-κB and AP-1-binding sites. Stimulation with a TLR7/8 ligand activates NF-kB and AP-1 which induce the production of SEAP. The cells are seeded in 96-well plate at 3.10E4 cells/well and incubated 18 to 24 h at 37° C., 5% CO2 before adding the compounds to evaluate. The cells are subsequently incubated with 3-fold serial dilutions of each of the compounds (0.01 to 20 μM) for 24 hours at 37° C., 5% CO2. Next, 20 μL of the supernatant is harvested and incubated with 200 μL of QUANTI-Blue™ Solution.

The target of a further test is T2, human TLR8 (Homo sapiens, UniProt Q9NR97).
T2 construct: host or cells: HEK293 (HEK-Blue hTLR8)
T2 sequence (Q9NR97 27-1041): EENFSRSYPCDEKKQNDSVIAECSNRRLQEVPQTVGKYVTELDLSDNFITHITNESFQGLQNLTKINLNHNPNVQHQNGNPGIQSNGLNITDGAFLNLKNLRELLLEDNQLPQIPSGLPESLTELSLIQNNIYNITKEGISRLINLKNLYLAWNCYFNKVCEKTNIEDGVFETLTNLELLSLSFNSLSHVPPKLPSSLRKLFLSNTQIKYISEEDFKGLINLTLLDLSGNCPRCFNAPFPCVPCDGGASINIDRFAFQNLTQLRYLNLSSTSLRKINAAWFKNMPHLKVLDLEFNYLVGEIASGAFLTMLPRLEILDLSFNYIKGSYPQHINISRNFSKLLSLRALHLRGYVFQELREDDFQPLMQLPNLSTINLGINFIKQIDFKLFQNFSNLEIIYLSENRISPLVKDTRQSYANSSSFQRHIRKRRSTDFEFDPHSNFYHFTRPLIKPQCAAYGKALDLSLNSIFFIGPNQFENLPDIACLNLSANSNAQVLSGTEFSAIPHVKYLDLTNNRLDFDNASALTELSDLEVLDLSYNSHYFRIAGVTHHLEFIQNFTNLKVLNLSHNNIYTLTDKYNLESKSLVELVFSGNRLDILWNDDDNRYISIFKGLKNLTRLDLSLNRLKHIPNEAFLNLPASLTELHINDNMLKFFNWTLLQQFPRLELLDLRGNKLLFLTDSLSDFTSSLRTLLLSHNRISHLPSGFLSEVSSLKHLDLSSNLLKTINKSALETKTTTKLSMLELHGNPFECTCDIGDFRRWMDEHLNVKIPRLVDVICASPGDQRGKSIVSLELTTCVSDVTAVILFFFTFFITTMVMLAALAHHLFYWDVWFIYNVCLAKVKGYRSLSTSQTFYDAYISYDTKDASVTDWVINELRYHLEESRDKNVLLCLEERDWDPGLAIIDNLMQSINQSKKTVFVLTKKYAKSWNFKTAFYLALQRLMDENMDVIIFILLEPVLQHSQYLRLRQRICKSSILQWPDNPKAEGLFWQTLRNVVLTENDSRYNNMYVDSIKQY
Description: HEK-Blue hTLR8 reporter cell assay (SEAP, NF-kB/AP-1) for stimulation of human TLR8. It counts as cell-based. To be noted: HEK-Blue hTLR8 cells; for EC50: 24 h incubation, SEAP readout, read-out: TLR8_EC50. How it is done:
as §1, §2
as §3, with “The cells are subsequently incubated with 3-fold serial dilutions of each of the compounds (0.01 to 20 μM) for 24 hours at 37° C., 5% CO2.” left out

Our source for the EC50 and activation values is patent publication US12583861B2, “Derivatives of imidazo[4,5-d]pyridazine, their preparation and their therapeutic application” (SANOFI, priority 2021, dated 2026).

Where a name gives a salt, the structure may show the parent alone.

On to `CCCCc1nc2c(N)nnc(CCC(C)C)c2n1Cc1ccc(OC)cc1` [Compound 13, 2-butyl-7-isopentyl-1-(4-methoxybenzyl)-1H-imidazo[4,5-d]pyridazin-4-amine], for which the EC50 was 345 nM on human TLR7 and over 20000 nM on human TLR8.
Taken in the same sequence, the figures for `CCCCc1nc2c(N)nnc(CCC(C)C)c2n1C[C@H]1CC[C@H](CN)CC1` [Compound 138, 1-(((1R,4R)-4-(aminomethyl)cyclohexyl)methyl)-2-butyl-7-isopentyl-1H-imidazo[4,5-d]pyridazin-4-amine] were 51.4 nM and over 20000 nM.
As to `CCCCc1nc2c(N)nnc(N3CCCC3)c2n1C[C@H]1CC[C@H](CN)CC1` [Compound 142, 1-(((1R,4R)-4-(aminomethyl)cyclohexyl)methyl)-2-butyl-7-(pyrrolidin-1-yl)-1H-imidazo[4,5-d]pyridazin-4-amine], the values for the EC50 at human TLR7 and on human TLR8 were 2640 nM and over 20000 nM, respectively.
`CCCCc1nc2c(N)nnc(C3=CCCC3)c2n1Cc1ccc(OC)cc1` [Compound 15, 2-butyl-7-(cyclopent-1-en-1-yl)-1-(4-methoxybenzyl)-1H-imidazo[4,5-d]pyridazin-4-amine hydrochloride]: the EC50 at human TLR7 is 649 nM; at human TLR8, over 20000 nM.
With `CCCCc1nc2c(N)nnc(OC(C)C)c2n1Cc1ccc(CNC(=O)CC)cc1` [Compound 103, N-(4-((4-amino-2-butyl-7-isopropoxy-1H-imidazo[4,5-d]pyridazin-1-yl)methyl)benzyl)propionamide], the values for the EC50 on human TLR7 and on human TLR8 were 55 nM and 15500 nM, respectively.
Turning to `CCCCc1nc2c(N)nnc(OC(C)C)c2n1Cc1ccc(CNCCC(=O)OC(C)(C)C)cc1` [Compound 119, tert-butyl 3-((4-((4-amino-2-butyl-7-isopropoxy-1H-imidazo[4,5-d]pyridazin-1-yl)methyl)benzyl)amino)propanoate], the values for the EC50 at human TLR7 and at human TLR8 were 143 nM and 2130 nM, respectively.
With `CCCCCCNCc1ccc(Cn2c(CCCC)nc3c(N)nnc(OC(C)C)c32)cc1` [Compound 109, 2-butyl-1-(4-((hexylamino)methyl)benzyl)-7-isopropoxy-1H-imidazo[4,5-d]pyridazin-4-amine], the EC50 on human TLR7 amounted to 50 nM; on human TLR8, 243 nM.
With `CCCCc1nc2c(N)nnc(OC(C)C)c2n1CCCCN(C(C)=O)C1CCOCC1` [Compound 151, N-[4-(7-amino-2-butyl-4-isopropoxy-imidazo[4,5-d]pyridazin-3-yl)butyl]-N-tetrahydropyran-4-yl-acetamide], the EC50 is 11200 nM at human TLR7 and over 20000 nM at human TLR8.
As to `CCCCc1nc2c(N)nnc(OC3CC[S+]([O-])C3)c2n1Cc1ccc(OC)cc1` (single isomer, unassigned; isomer b) [Compound 69, 3-((4-amino-2-butyl-1-(4-methoxybenzyl)-1H-imidazo[4,5-d]pyridazin-7-yl)oxy)tetrahydrothiophene 1-oxide isomer B], the EC50 on human TLR7 is 6760 nM; on human TLR8, over 20000 nM.
Taken in the same sequence, the figures for `CCCCCCCCCCNCc1ccc(Cn2c(CCCC)nc3c(N)nnc(OC(C)C)c32)cc1` [Compound 110, 2-butyl-1-(4-((decylamino)methyl)benzyl)-7-isopropoxy-1H-imidazo[4,5-d]pyridazin-4-amine] were 734 nM and 2850 nM.
In the case of `CCCCc1nc2c(N)nnc(OC(C)C)c2n1CC(C)(CO)CO` [Compound 156, 2-[(7-amino-2-butyl-4-isopropoxy-imidazo[4,5-d]pyridazin-3-yl)methyl]-2-methyl-propane-1,3-diol; hydrochloride], the EC50 came to 75 nM at human TLR7 and 5 nM at human TLR8.
Turning to `CCCCc1nc2c(N)nnc(-c3cc[nH]n3)c2n1Cc1ccc(OC)cc1` [Compound 96, 2-butyl-1-(4-methoxybenzyl)-7-(1H-pyrazol-3-yl)-1H-imidazo[4,5-d]pyridazin-4-amine], at human TLR7, the EC50 is over 20000 nM. Besides, the activation at 20 µM on human TLR8 (24 h, at 20000 nM) stood at 22.7%.
On to `CCCCc1nc2c(N)nnc(OC(C)C)c2n1Cc1ccc(C#N)cn1` [Compound 27, 6-((4-amino-2-butyl-7-isopropoxy-1H-imidazo[4,5-d]pyridazin-1-yl)methyl)nicotinonitrile], for which the values for the EC50 on human TLR7 and at human TLR8 were 2100 nM and over 20000 nM, respectively.
The corresponding values for `CCCCc1nc2c(N)nnc(OC)c2n1Cc1ccc(OC)cc1` [Compound 50, 2-butyl-7-methoxy-1-(4-methoxybenzyl)-1H-imidazo[4,5-d]pyridazin-4-amine] are 269 nM and over 20000 nM.
On to `CCCCc1nc2c(N)nnc(OC(C)C)c2n1Cc1ccc(CNC(=O)c2ccccc2)cc1` [Compound 106, N-(4-((4-amino-2-butyl-7-isopropoxy-1H-imidazo[4,5-d]pyridazin-1-yl)methyl)benzyl)benzamide], for which, at human TLR7, the EC50 amounted to 68 nM.
Take `CCCCc1nc2c(N)nnc(OC(C)C)c2n1CCCCCCNC1CS(=O)(=O)C1` [Compound 154, 2-butyl-3-[6-[(1,1-dioxothietan-3-yl)amino]hexyl]-4-isopropoxy-imidazo[4,5-d]pyridazin-7-amine]: on human TLR7, the EC50 was found to be 117 nM.
